Test system: Streptococcus
Experiment: Antimicrobial activity against group A streptococci assessed as percent resistant isolates by Etest
Assay type: functional

Compound: CC[C@H]1OC(=O)[C@H](C)[C@@H](O[C@H]2C[C@@](C)(OC)[C@@H](O)[C@H](C)O2)[C@H](C)[C@@H](O[C@@H]2O[C@H](C)C[C@H](N(C)C)[C@H]2O)[C@](C)(O)C[C@@H](C)C(=O)[C@H](C)[C@@H](O)[C@]1(C)O [ERYTHROMYCIN]
- Activity: 25%

Compound: CN(C)[C@@H]1C(O)=C(C(N)=O)C(=O)[C@@]2(O)C(O)=C3C(=O)c4c(O)cccc4[C@@](C)(O)[C@H]3C[C@@H]12 [TETRACYCLINE]
- Activity: 38%
